Laboratory results published in ChEMBL document CHEMBL5338810, “Targeting Pancreatic Cancer with Novel Plumbagin Derivatives: Design, Synthesis, Molecular Mechanism, In Vitro and In Vivo Evaluation” (J Med Chem, 2023).
The source made the active and inactive calls. The rule behind the calls is not given here.

Legend:
[1] = Selectivity ratio, ratio of IC50 for cytotoxicity against human PANC-1 cells in Dulbecco's modified Eagle's medium to PC50 for preferential cytotoxic activity against human PANC-1 cells in nutrient-deprived medium; assay type: functional
PANC-1 [2] = assay: Cytotoxicity against human PANC-1 cells in Dulbecco's modified Eagle's medium assessed as reduction in cell viability incubated for 24 hrs by WST-8 cell counting analysis; assay type: functional, cell-based; details: PANC-1, 24 h
PANC-1 [3] = assay: Preferential cytotoxic activity against human PANC-1 cells in nutrient-deprived medium assessed as reduction in cell viability incubated for 24 hrs by WST-8 cell counting analysis; assay type: functional
[4] = Toxicity in athymic BALB/c-nu mouse xenografted with human MIA PaCa-2 cells assessed as survival at 50 to 250 ug, ip administered 5 times per week for 4 weeks; assay type: organism-based; details: in vivo, 672 h, dose 50-250 µg
PANC-1 [5] = assay: Disruption of plasma membrane integrity in human PANC-1 cells in nutrient-deprived medium assessed as leakage of cellular contents by measuring increase in red fluorescence at 1 uM incubated for 24 hrs by dual fluorescent staining based microscopic analysis; assay type: functional, cell-based
[6] = Toxicity in athymic BALB/c-nu mouse xenografted with human MIA PaCa-2 cells assessed as changes in body weight at 50 to 250 ug, ip administered 5 times per week for 4 weeks and measured twice weekly; assay type: organism-based; details: in vivo, 672 h, dose 50-250 µg
MIA PaCa-2 [7] = assay: Antitumor activity against human MIA PaCa-2 cells xenografted in athymic BALB/c-nu mouse assessed as reduction in average mean wet weight at 50 ug, ip administered 5 times per week for 4 weeks and measured on day 32 (reference value: 465.4 mg); assay type: functional; details: dose 50 µg
MIA PaCa-2 [8] = assay: Antitumor activity against human MIA PaCa-2 cells xenografted in athymic BALB/c-nu mouse assessed as reduction in average mean wet weight at 250 ug, ip administered 5 times per week for 4 weeks and measured on day 32 (reference value: 465.4 mg); assay type: functional; details: dose 250 µg
[9] = Inhibition of PI3K/Akt/mTOR signaling pathway in human PANC-1 cells in nutrient-deprived medium at 0.5 to 10 uM by Western blotting analysis; assay type: cell-based; details: dose 0.5-10 µM, time 3-6 hrs, TDE = time-dependent effect
PANC-1 [10] = assay: Disruption of plasma membrane integrity in human PANC-1 cells in nutrient-deprived medium assessed as rounded cell morphology by measuring increase in red fluorescence at 1 uM incubated for 24 hrs by dual fluorescent staining based microscopic analysis; assay type: functional
MIA PaCa-2 [11] = assay: Antitumor activity against human MIA PaCa-2 cells xenografted in athymic BALB/c-nu mouse assessed as changes in gross appearance of tumor at 50 to 250 ug, ip administered 5 times per week for 4 weeks; assay type: functional, organism-based; details: dose 50-250 µg
MIA PaCa-2 [12] = assay: Antitumor activity against human MIA PaCa-2 cells xenografted in athymic BALB/c-nu mouse assessed as reduction in mean tumor volume at 250 ug, ip administered 5 times per week for 4 weeks and measured on day 18 (reference value: 447 mm3); assay type: functional; details: dose 250 µg
MIA PaCa-2 [13] = assay: Antitumor activity against human MIA PaCa-2 cells xenografted in athymic BALB/c-nu mouse assessed as reduction in mean tumor volume at 50 ug, ip administered 5 times per week for 4 weeks and measured on day 18 (reference value: 447 mm3); assay type: functional; details: dose 50 µg
[14] = Inhibition of PI3K/Akt/mTOR signaling pathway in human PANC-1 cells in nutrient-deprived medium assessed as redution in Akt phosphorylation at 0.5 to 10 uM incubated for 3 hrs by Western blotting analysis; assay type: cell-based; details: dose 0.5-10 µM
PANC-1 [15] = assay: Disruption of plasma membrane integrity in human PANC-1 cells in nutrient-deprived medium assessed as rupture of the cell membrane by measuring increase in red fluorescence at 1 uM incubated for 24 hrs by dual fluorescent staining based microscopic analysis; assay type: functional
MIA PaCa-2 [16] = assay: Antitumor activity against human MIA PaCa-2 cells xenografted in athymic BALB/c-nu mouse assessed as reduction in blood vessels at 50 to 250 ug, ip administered 5 times per week for 4 weeks; assay type: functional, organism-based; details: dose 50-250 µg
[17] = Inhibition of PI3K/Akt/mTOR signaling pathway in human PANC-1 cells in nutrient-deprived medium incubated for 3 to 6 hrs by Western blotting analysis; assay type: cell-based; details: dose 0.5-10 µM, time 3-6 hrs
MIA PaCa-2 [18] = assay: Antitumor activity against human MIA PaCa-2 cells xenografted in athymic BALB/c-nu mouse assessed as reduction in mean tumor volume at 250 ug, ip administered 5 times per week for 4 weeks and measured on day 32 (reference value: 1642 mm3); assay type: functional; details: dose 250 µg
[19] = Toxicity in athymic BALB/c-nu mouse xenografted with human MIA PaCa-2 cells assessed as changes in abdominal organs at 50 to 250 ug, ip administered 5 times per week for 4 weeks; assay type: organism-based; details: in vivo, 672 h, dose 50-250 µg
MIA PaCa-2 [20] = assay: Antitumor activity against human MIA PaCa-2 cells xenografted in athymic BALB/c-nu mouse assessed as reduction in mean tumor volume at 50 ug, ip administered 5 times per week for 4 weeks and measured on day 32 (reference value: 1642 mm3); assay type: functional; details: dose 50 µg
PANC-1 [21] = assay: Disruption of plasma membrane integrity in human PANC-1 cells in nutrient-deprived medium assessed as membrane blebs by measuring increase in red fluorescence at 1 uM incubated for 24 hrs by dual fluorescent staining based microscopic analysis; assay type: functional, cell-based

| Structure (SMILES) | Ratio [1] | IC50 (PANC-1 [2]) [µM] | PC50 (PANC-1 [3]) [µM] | other results |
| --- | --- | --- | --- | --- |
| CCC1=CC(=O)c2ccccc2C1=O | 33.1 | 39.7 | 1.2 |  |
| O=C1C(CC2CCCC2)=CC(=O)c2c(O)cccc21 | 21 | 8.4 | 0.4 |  |
| CCCC1=CC(=O)c2c(O)cccc2C1=O | 34.7 | 15.6 | 0.45 |  |
| CCCC1=CC(=O)c2ccccc2C1=O | 11 | 39.1 | 3.55 |  |
| CCC1=CC(=O)c2cccc(O)c2C1=O | 8.2 | 8.56 | 1.05 |  |
| Cc1ccc(CC2=CC(=O)c3ccccc3C2=O)cc1 | 16.3 | 76.2 | 4.67 |  |
| O=C1C=C(Cc2cccc(Cl)c2)C(=O)c2ccccc21 | 16.4 | 46.7 | 2.84 |  |
| CC(C)CC1=CC(=O)c2c(O)cccc2C1=O | 33.1 | 12.9 | 0.39 |  |
| O=C1C(CC2CCCCC2)=CC(=O)c2c(O)cccc21 | 429 | 47.2 | 0.11 | Activity [4]: Non-Toxic; Activity (PANC-1 [5]): Active; Activity [6]: Non-Toxic; Activity (MIA PaCa-2 [7]): 205.8 mg; Activity (MIA PaCa-2 [8]): 107.6 mg; inhibition [9]: Tde; Activity (PANC-1 [10]): Active; Activity (MIA PaCa-2 [11]): Active; Activity (MIA PaCa-2 [12]): 166 mm3; Activity (MIA PaCa-2 [13]): 210 mm3; inhibition [14]: Active; Activity (PANC-1 [15]): Active; Activity (MIA PaCa-2 [16]): Active; inhibition [17]: Dose-Dependent Effect; Activity (MIA PaCa-2 [18]): 446 mm3; Activity [19]: Non-Toxic; Activity (MIA PaCa-2 [20]): 763 mm3; Activity (PANC-1 [21]): Active |
| CC1=CC(=O)c2c(O)cccc2C1=O [PLUMBAGIN] | 15.4 | 23.7 | 1.54 |  |
| O=C1C(CC2CCCCCC2)=CC(=O)c2c(O)cccc21 | 5.41 | 4.22 | 0.78 |  |
| O=C1C=C(CC2CCCCC2)C(=O)c2c(O)cccc21 | 42.9 | 31.9 | 0.74 |  |
| CCC1=CC(=O)c2c(OC)cccc2C1=O | 4.86 | 103 | 21.2 |  |
| CCC1=CC(=O)c2c(O)cccc2C1=O | 21.6 | 31.6 | 1.46 |  |
| O=C1C=C(CC2CCCCC2)C(=O)c2ccccc21 | 69.9 | 66.9 | 0.96 |  |
